One test concerns the target T1, Lhs1p (Saccharomyces cerevisiae, UniProt P36016).
T1 sequence (P36016 21-881): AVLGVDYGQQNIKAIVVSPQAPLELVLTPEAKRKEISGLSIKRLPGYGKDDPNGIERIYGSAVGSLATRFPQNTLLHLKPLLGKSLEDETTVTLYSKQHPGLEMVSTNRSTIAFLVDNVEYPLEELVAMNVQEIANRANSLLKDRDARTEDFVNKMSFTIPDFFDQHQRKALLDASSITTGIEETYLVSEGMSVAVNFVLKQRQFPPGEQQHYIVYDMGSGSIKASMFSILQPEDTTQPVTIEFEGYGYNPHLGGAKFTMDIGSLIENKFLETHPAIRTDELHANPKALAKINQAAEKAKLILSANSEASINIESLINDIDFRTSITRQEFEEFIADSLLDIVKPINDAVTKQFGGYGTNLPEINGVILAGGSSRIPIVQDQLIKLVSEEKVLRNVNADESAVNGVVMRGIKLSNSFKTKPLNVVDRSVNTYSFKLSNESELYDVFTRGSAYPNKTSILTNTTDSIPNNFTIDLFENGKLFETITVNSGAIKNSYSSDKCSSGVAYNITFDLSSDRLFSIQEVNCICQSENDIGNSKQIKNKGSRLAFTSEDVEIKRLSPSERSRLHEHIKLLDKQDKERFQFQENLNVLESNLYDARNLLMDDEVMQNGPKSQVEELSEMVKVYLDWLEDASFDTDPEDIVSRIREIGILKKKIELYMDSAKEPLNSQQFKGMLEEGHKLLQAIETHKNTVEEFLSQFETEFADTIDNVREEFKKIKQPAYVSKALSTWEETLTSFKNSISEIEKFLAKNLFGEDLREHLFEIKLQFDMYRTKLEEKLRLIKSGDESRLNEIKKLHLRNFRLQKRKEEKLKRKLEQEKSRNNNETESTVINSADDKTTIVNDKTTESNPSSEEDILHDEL
Kind of test: biochemical.

The target of another test is Kar2p (Saccharomyces cerevisiae, UniProt P16474). The test is described as follows: proteinase K protection, SDS-PAGE. In kind it is binding. The settings on record: 2 mM ADP; 5 mM MgCl2; pH 7.4; room temperature.
Sequence of Kar2p (P16474 43-682): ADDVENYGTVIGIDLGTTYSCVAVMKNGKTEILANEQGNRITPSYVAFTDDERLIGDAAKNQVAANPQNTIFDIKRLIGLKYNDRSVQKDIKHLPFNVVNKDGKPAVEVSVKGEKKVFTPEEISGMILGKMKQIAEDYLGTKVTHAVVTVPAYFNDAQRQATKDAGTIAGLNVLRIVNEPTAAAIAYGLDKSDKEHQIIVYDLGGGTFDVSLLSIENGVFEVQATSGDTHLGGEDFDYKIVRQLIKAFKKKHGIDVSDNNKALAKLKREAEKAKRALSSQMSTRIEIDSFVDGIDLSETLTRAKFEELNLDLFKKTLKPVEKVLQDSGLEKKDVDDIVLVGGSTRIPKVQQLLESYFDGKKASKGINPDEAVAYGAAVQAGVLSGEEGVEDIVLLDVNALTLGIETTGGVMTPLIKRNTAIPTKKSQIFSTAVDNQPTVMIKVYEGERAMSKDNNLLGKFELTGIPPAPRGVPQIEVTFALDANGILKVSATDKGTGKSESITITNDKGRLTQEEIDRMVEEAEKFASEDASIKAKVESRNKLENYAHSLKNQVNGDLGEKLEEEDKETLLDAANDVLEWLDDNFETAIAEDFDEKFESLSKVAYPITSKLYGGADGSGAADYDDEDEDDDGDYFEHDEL

Broadly, the Kd is the equilibrium constant for the complex coming apart. A low value points to a tighter complex. As to `Nc1ncnc2c1ncn2[C@@H]1O[C@H](COP(=O)(O)OP(=O)(O)OP(=O)(O)O)[C@@H](O)[C@H]1O` [ATP], on Lhs1p, the Kd is 13.6 ± 0.5 µM.
With `Nc1ncnc2c1ncn2[C@@H]1O[C@H](COP(=O)(O)OP(=O)(O)O)[C@@H](O)[C@H]1O` [ADP], the “proteinase K protection, SDS-PAGE” value on Kar2p is “ADP binding protects a ∼44-kDa NBD fragment”.

For the origin of these results see article PMC2797226 (The Journal of Biological Chemistry, 2009).
